Results reported in PMC2424174, “Suppression of Tumor Growth and Angiogenesis by a Specific Antagonist of the Cell-Surface Expressed Nucleolin” (PLoS ONE, 2008).

Columns and labels:
MDA-MB-435 cells = assay: Colony formation in soft agar, MDA-MB-435; assay type: cell-based, human; details: 5 µM HB-19, MDA-MB-435
Procedure: Figure 4 HB-19 inhibits colony formation in soft agar by tumor cell lines. (A) MDA-MB-231 cells in culture medium were seeded in triplicate in the absence (histogram C) or presence of 0.1, 0.5 and 1 of µM HB-19, or 0.1 µM of the anti-nucleolin mAb MS-3 or control IgG, or 10 µM bisphosphonate (BisP). (B) Various tumor cell lines (as indicated) in culture medium were seeded in triplicate in the absence (histogram Control) or presence of 5 µM HB-19. After 10–21 days, colonies with diameters greater than 50 µm were scored as positive. Statistical significance: *0.01<p<[…], **p<0.01, ***p<0.001.
Carcinoma cells (2×10^4) were mixed in 0.35% top agar, diluted in complete medium (DMEM containing 10% FBS) in the absence or presence of HB-19, and plated onto 0.8% bottom agar into 12-well plates. Cells were treated twice a week during 10 to 21 days. Colonies with diameters greater than 50 µm were scored as positive using a phase contrast microscope equipped with a measuring grid at magnification 100× [45]. The number of colonies was determined by analyzing 5 fields/well from 3 wells and the test was repeated at least twice.

ERK1/2 = assay: Serum-induced phosphorylation of ERK1/2; assay type: cell-based, human; details: 2, 5 and 10 µM HB-19; 5 min after 10% FBS
Procedure: Figure 5 Cell cycle perturbations induced by HB-19 treatment. (A) Analysis of cell cycle parameters in HB-19 treated cells. MDA-MB-231 cells were cultured for 48 hours in medium without FBS (starvation) or in medium containing 10% FBS supplemented or not with 10 µM HB-19. DNA synthesis was quantified after BrdU incorporation and staining with anti-BrdU antibody and 7-AAD, by FACScan analysis. The histograms indicate the relative amount of cells in G1, S and G2/M cell phases. […] Serum starved MDA-MB-231 cells were stimulated with 10% FBS in the absence or presence of 2, 5, and 10 µM of HB-19. Five minutes after serum stimulation, cells were lysed directly in electrophoresis sample buffer and processed for immunoblotting using anti-phospho-p42/44 ERK1/2 and anti-p42/44 ERK antibodies. NS stands for non-stimulated cells.

[1] = test system: Aortic endothelial (ABAE) cells; assay: Tubular network structure formation in collagen gel; assay type: cell-based, bovine
Procedure: Figure 6 Inhibition of in vitro and in vivo angiogenesis by HB-19. (A) HB-19 inhibits proliferation of HUVECs. Twenty-four hours after seeding HUVECs in 2% FBS, cells were stimulated by 0.25 nM VEGF165, in the absence or presence of 1 µM HB-19 or 0.1 µM anti-nucleolin mAb MS-3 as indicated. After 72 h, cell number was determined by crystal violet staining. The data are reported as the mean of triplicate samples. (B) HB-19 inhibits migration of HUVECs. Cell migration was studied using a modified Boyden chamber. Cells were incubated (4 h at 37°C) with VEGF165, HB-19, or anti-nucleolin mAb MS-3 as above. Cells that migrated through the pore to the lower filter surface were counted and are shown as number per microscopic field at ×100 magnification. The data are the mean of three independent high-power fields/well performed in duplicate in two independent experiments. […] Aortic endothelial (ABAE) cells in the absence or presence of 3 nM PTN, 0.5 nM VEGF165, and 3 nM FGF-2 were seeded on a three-dimensional collagen gel in complete medium. Treatment with HB-19 or anti-nucleolin mAb MS-3 was for 3 days after cell plating. Tubular network structures were quantified using phase contrast microscopy (×100). The ordinate gives the number of pseudocapillaries corresponding to the means of three randomly chosen fields/well from three wells. (D) HB-19 inhibits […] angiogenic activity of growth factors in a Matrigel plug model. Liquid Matrigel was subcutaneously injected into the flank of Swiss mice in the absence or presence of 5 nM PTN, 10 nM FGF-2, and 1 µM HB-19. Quantification of endothelial cell invasion into the Matrigel was determined and is expressed as a mean of five fields per section from 3 Matrigel-plug sections per mouse. The results are expressed as the mean of five mice per group. Statistical significance: *p<0.05, **p<0.01, ***p<0.001.
Three-dimensional collagen gels were prepared following the procedure of Montesano with minor modifications. […] Tubular network structures were then quantified using phase contrast microscopy at 100× magnification. […]

athymic nude mice = assay: Toxicity observations in treated nude mice; details: HB-19, 3 times per week; data not shown

## pseudo-tripeptide Lysψ(CH2N)-Pro-Arg coupled to a template (H2NLys-Lys-Lys-Gly-Pro-Lys-Glu-Lys-AhxCONH2) [HB-19]
MDA-MB-435 cells
  colony formation: reduced markedly
ERK1/2
  serum-stimulated ERK1/ERK2 phosphorylation: prevents enhanced phosphorylation of ERK1/ERK2
[1]; 0.5 nM VEGF165, treatment 3 days
  capillary-like structure formation, VEGF induced: inhibited formation of capillary-like branched structures
[1]; 3 nM FGF-2, treatment 3 days
  tubular network formation, FGF-2 induced: inhibits tubular network structure formation in collagen
[1]; 3 nM PTN, treatment 3 days
  capillary-like structure formation, PTN induced: inhibited formation of capillary-like branched structures
Athymic nude mice
  evidence of toxicity: nor induced any evidence of toxicity such as diarrhea, infection, weakness, or lethargy
